Data taken from patent publication US9822130B2, “Triazolo-pyrazinyl derivatives useful as soluble guanylate cyclase activators” (Merck Sharp & Dohme Corp., priority 2014, dated 2017).

Target: T1, sGC α1/β1 heterodimer stably expressed in CHO-K1 cell line (CHO-K1/sGC) (Homo sapiens, UniProt Q02108+Q02153)
T1 construct: expressed in transfected cells
T1 sequence (Q02108 1-690): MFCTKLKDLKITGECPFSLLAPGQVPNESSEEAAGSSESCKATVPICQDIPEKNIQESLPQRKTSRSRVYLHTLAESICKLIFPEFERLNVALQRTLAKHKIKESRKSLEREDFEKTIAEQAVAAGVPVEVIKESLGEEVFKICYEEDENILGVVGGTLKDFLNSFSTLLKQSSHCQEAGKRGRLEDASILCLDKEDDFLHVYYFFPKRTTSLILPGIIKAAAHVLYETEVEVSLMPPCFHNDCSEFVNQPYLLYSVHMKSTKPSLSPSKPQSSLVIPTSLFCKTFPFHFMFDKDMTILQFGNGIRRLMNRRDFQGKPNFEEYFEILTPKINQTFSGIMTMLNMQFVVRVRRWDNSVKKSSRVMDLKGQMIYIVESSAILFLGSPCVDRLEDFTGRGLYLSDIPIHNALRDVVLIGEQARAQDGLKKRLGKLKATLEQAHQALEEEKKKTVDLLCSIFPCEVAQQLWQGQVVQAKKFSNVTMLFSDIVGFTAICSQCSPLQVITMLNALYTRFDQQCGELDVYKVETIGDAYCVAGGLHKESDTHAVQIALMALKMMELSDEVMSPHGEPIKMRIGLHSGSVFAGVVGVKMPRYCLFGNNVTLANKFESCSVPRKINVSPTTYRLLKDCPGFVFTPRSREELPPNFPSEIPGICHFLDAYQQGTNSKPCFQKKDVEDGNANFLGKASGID
T1 sequence (Q02153 1-619): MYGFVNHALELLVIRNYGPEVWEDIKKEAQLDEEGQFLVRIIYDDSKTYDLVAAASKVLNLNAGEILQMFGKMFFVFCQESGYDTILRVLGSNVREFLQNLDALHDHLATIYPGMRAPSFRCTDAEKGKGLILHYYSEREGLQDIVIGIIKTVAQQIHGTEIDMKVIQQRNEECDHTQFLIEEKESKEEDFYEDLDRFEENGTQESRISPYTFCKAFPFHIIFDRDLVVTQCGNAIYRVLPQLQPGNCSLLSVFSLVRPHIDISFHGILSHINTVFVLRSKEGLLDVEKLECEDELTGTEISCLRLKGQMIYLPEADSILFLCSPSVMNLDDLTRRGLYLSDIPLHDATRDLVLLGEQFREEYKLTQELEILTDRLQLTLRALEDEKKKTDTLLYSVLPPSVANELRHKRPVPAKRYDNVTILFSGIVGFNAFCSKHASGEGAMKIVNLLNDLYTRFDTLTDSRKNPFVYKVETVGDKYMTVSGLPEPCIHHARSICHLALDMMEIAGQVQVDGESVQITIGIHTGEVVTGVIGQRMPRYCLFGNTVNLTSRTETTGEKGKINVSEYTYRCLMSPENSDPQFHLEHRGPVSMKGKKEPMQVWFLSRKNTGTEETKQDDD
Experiment: Cell-based sGC Functional Assay (CASA Assay), cGMP generation
Conditions: CHO-K1/sGC cells, 1 hr at 37° C., cGMP by HTRF, 4P fit; presence or absence of 1 μM DETA-NO not given; read-out: IP (nM) (inflection point)
Text: sGC is a heme-containing enzyme that converts GTP to secondary messenger cGMP. Increases in cGMP levels affect several physiological processes including vasorelaxation through multiple downstream pathways. […] Heme-dependent activators (HDAs) preferentially activate sGC containing a ferrous heme group. To determine the effect of sGC activators on enzyme activity, the CASA assay was developed to monitor the generation of cGMP in a cell line that stably expresses the heterodimeric sGC protein.
A CHO-K1 cell line stably expressing the sGC α1/β1 heterodimer was generated using a standard transfection protocol. CHO-K1 cells were transfected with plasmids pIREShyghsGCα1 and pIRESneo-hsGCβ1 simultaneously using FUGENE reagent. Clones that stably express both subunits were selected with hygromycin and neomycin for ˜2 weeks. Clone #7 was chosen for the assay and was designated CHO-K1/sGC. CHO-K1/sGC cells were maintained in F-K12 medium containing 10% heat-inactivated Fetal Bovine Serum (FBS), 100 μg/mL penicillin/streptomycin, 0.5 mg/mL hygromycin and 0.25 mg/mL G418. The cells were then cryopreserved in LN2. On the day of the assay, cells thawed and resuspended in EBSS Assay Buffer (Sigma, E3024) supplemented with 5 mM MgCl2, 10 mM HEPES (4-(2-hydroxyethyl)piperazine-1-ethanesulfonic acid) and 0.05% BSA (bovine serum albumin) (EAB) and cell density was then adjusted to 4×10^5/mL with EAB, IBMX (3-isobutyl-1-methylxanthin, 0.5 mM) was added to inhibit degradation of cGMP. Compounds were diluted from DMSO stock solutions and added to the assay at a final DMSO concentration of 2.5%. Cells were incubated with compounds in the presence and absence of 1 μM of Diethylenetriamine/nitric oxide adduct (DETA-NO; Sigma, 17018) for 1 hr at 37° C. At the end of the incubation period, the reaction was terminated and the cells were lysed with the detection reagents from Cisbio Kits. The level of intracellular cGMP was determined using an HTRF-based assay kit (CisBio, 62GM2PEC), which detects the displacement of a fluorescence labeled cGMP from its specific antibody. The cGMP produced by test compounds was directly compared to the maximum cGMP production (this value was set to equal 100% activation.) of the published sGC-HDA Compound A:
[drawing 300] (Example 1 in WO 2010/065275, published Jun. 10, 2010). The test compounds' activities were then expressed as a percentage of Compound A, the standard in every experiment. This percent activation was calculated either in the presence or absence of DETA-NO which was then plotted. IP and maximum fold induction was derived using ADA analysis software for 4P fit.
The compounds in the Examples of the instant invention had inflection points (IP) less than or equal to 10 μM and more particularly less than or equal to about 1 μM.

SMILES: Nc1nc(-c2cn3ncnc3c(CCCC(F)(F)F)n2)nc2c1C(c1ccc(Cl)cn1)(C1CC1)C(=O)N2 (centres unmarked) [Example 27A, 4-amino-5-(5-chloropyridin-2-yl)-5-cyclopropyl-2-(8-(4,4,4-trifluorobutyl)-[1,2,4]triazolo[1,5-a]pyrazin-6-yl)-5H-pyrrolo[2,3-d]pyrimidin-6(7H)-one]
- EC50: 278 nM

SMILES: CC1(c2ccc(Cl)c(F)c2)C(=O)Nc2nc(-c3cn4ncnc4c(CCCC(F)(F)F)n3)nc(N)c21 (centres unmarked) [Example 28B, 4-amino-5-(4-chloro-3-fluorophenyl)-5-methyl-2-(8-(4,4,4-trifluorobutyl)-[1,2,4]triazolo[1,5-a]pyrazin-6-yl)-5H-pyrrolo[2,3-d]pyrimidin-6(7H)-one]
- EC50: 20 nM

SMILES: CC1(c2ccc(Cl)cc2)C(=O)Nc2nc(-c3cn4ncnc4c(CCCC(F)(F)F)n3)nc(N)c21 (centres unmarked) [Example 29A, 4-amino-5-(4-chlorophenyl)-5-methyl-2-(8-(4,4,4-trifluorobutyl)-[1,2,4]triazolo[1,5-a]pyrazin-6-yl)-5H-pyrrolo[2,3-d]pyrimidin-6(7H)-one]
- EC50: 11.4 nM

SMILES: Nc1nc(-c2cn3ncnc3c(CCCC(F)(F)F)n2)nc2c1C(c1ccc(F)cc1)(C1CC1)C(=O)N2 (centres unmarked) [Example 30B, 4-amino-5-cyclopropyl-5-(4-fluorophenyl)-2-(8-(4,4,4-trifluorobutyl)-[1,2,4]triazolo[1,5-a]pyrazin-6-yl)-5H-pyrrolo[2,3-d]pyrimidin-6(7H)-one]
- EC50: 36.7 nM

SMILES: Nc1nc(-c2cn3ncnc3c(CCCC(F)(F)F)n2)nc2c1C(c1ccc(Cl)cc1)(C1CC1)C(=O)N2 (centres unmarked) [Example 31B, 4-amino-5-(4-chlorophenyl)-5-cyclopropyl-2-(8-(4,4,4-trifluorobutyl)-[1,2,4]triazolo[1,5-a]pyrazin-6-yl)-5H-pyrrolo[2,3-d]pyrimidin-6(7H)-one]
- EC50: 13 nM

SMILES: Nc1nc(-c2cn3ncnc3c(CCCC(F)(F)F)n2)nc2c1C(c1ccc(F)c(F)c1)(C1CC1)C(=O)N2 (centres unmarked) [Example 32A, 4-amino-5-cyclopropyl-5-(3,4-difluorophenyl)-2-(8-(4,4,4-trifluorobutyl)-[1,2,4]triazolo[1,5-a]pyrazin-6-yl)-5H-pyrrolo[2,3-d]pyrimidin-6(7H)-one]
- EC50: 77.4 nM

SMILES: Nc1nc(-c2cn3ncnc3c(CCCC(F)(F)F)n2)nc2c1C(c1ccc(Cl)c(F)c1)(C1CC1)C(=O)N2 (centres unmarked) [Example 33A, 4-amino-5-(4-chloro-3-fluorophenyl)-5-cyclopropyl-2-(8-(4,4,4-trifluorobutyl)-[1,2,4]triazolo[1,5-a]pyrazin-6-yl)-5H-pyrrolo[2,3-d]pyrimidin-6(7H)-one]
- EC50: 5.6 nM

SMILES: Nc1nc(-c2cn3ncnc3c(CCCC(F)(F)F)n2)nc2c1C(c1ccc(F)cn1)(C1CC1)C(=O)N2 (centres unmarked) [Example 34A, 4-amino-5-cyclopropyl-5-(5-fluoropyridin-2-yl)-2-(8-(4,4,4-trifluorobutyl)-[1,2,4]triazolo[1,5-a]pyrazin-6-yl)-5H-pyrrolo[2,3-d]pyrimidin-6(7H)-one]
- EC50: 428 nM

SMILES: Nc1nc(-c2cn3ncnc3c(CCCC(F)(F)F)n2)nc2c1C(c1ccc(C(F)(F)F)cc1)(C1CC1)C(=O)N2 (centres unmarked) [Example 35A, 4-amino-5-cyclopropyl-2-(8-(4,4,4-trifluorobutyl)-[1,2,4]triazolo[1,5-a]pyrazin-6-yl)-5-(4-(trifluoromethyl)phenyl)-5H-pyrrolo[2,3-d]pyrimidin-6(7H)-one]
- EC50: 416 nM

SMILES: CC1(c2ccccn2)C(=O)Nc2nc(-c3cn4ncnc4c(CCCC(F)(F)F)n3)nc(N)c21 (centres unmarked) [Example 36B, 4-amino-5-methyl-5-(pyridin-2-yl)-2-(8-(4,4,4-trifluorobutyl)-[1,2,4]triazolo[1,5-a]pyrazin-6-yl)-5H-pyrrolo[2,3-d]pyrimidin-6(7H)-one]
- EC50: 56.5 nM

SMILES: CC1(c2ccccc2)C(=O)Nc2nc(-c3cn4ncnc4c(CCCC(F)(F)F)n3)nc(N)c21 (centres unmarked) [Example 37B, 4-amino-5-methyl-5-phenyl-2-(8-(4,4,4-trifluorobutyl)-[1,2,4]triazolo[1,5-a]pyrazin-6-yl)-5H-pyrrolo[2,3-d]pyrimidin-6(7H)-one]
- EC50: 11.5 nM

SMILES: CC1(c2ccc(F)c(F)c2)C(=O)Nc2nc(-c3cn4ncnc4c(CCCC(F)(F)F)n3)nc(N)c21 (centres unmarked) [Example 38B, 4-amino-5-(3,4-difluorophenyl)-5-methyl-2-(8-(4,4,4-trifluorobutyl)-[1,2,4]triazolo[1,5-a]pyrazin-6-yl)-5H-pyrrolo[2,3-d]pyrimidin-6(7H)-one]
- EC50: 11 nM

SMILES: COc1ccc(C2(C3CC3)C(=O)Nc3nc(-c4cn5ncnc5c(CCCC(F)(F)F)n4)nc(N)c32)nc1 (centres unmarked) [Example 39A, 4-amino-5-cyclopropyl-5-(5-methoxypyridin-2-yl)-2-(8-(4,4,4-trifluorobutyl)-[1,2,4]triazolo[1,5-a]pyrazin-6-yl)-5H-pyrrolo[2,3-d]pyrimidin-6(7H)-one]
- EC50: 20.1 nM

SMILES: COc1ccc(C2(C)C(=O)Nc3nc(-c4cn5ncnc5c(CCCC(F)(F)F)n4)nc(N)c32)nc1 (centres unmarked) [Example 40A, 4-amino-5-(5-methoxypyridin-2-yl)-5-methyl-2-(8-(4,4,4-trifluorobutyl)-[1,2,4]triazolo[1,5-a]pyrazin-6-yl)-5H-pyrrolo[2,3-d]pyrimidin-6(7H)-one]
- EC50: 98.9 nM

SMILES: Nc1nc(-c2cn3ncnc3c(CCCC(F)(F)F)n2)nc2c1C(c1ncc(Cl)cn1)(C1CC1)C(=O)N2 (centres unmarked) [Example 41A, 4-amino-5-(5-chloropyrimidin-2-yl)-5-cyclopropyl-2-(8-(4,4,4-trifluorobutyl)-[1,2,4]triazolo[1,5-a]pyrazin-6-yl)-5H-pyrrolo[2,3-d]pyrimidin-6(7H)-one]
- EC50: 27.8 nM

SMILES: CC1(c2ccc(F)c(Cl)c2)C(=O)Nc2nc(-c3cn4ncnc4c(CCCC(F)(F)F)n3)nc(N)c21 (centres unmarked) [Example 42B, 4-amino-5-(3-chloro-4-fluorophenyl)-5-methyl-2-(8-(4,4,4-trifluorobutyl)-[1,2,4]triazolo[1,5-a]pyrazin-6-yl)-5H-pyrrolo[2,3-d]pyrimidin-6(7H)-one]
- EC50: 8.7 nM

SMILES: CC1(c2ccc(C(F)F)cn2)C(=O)Nc2nc(-c3cn4ncnc4c(CCCC(F)(F)F)n3)nc(N)c21 (centres unmarked) [Example 43B, 4-amino-5-(5-(difluoromethyl)pyridin-2-yl)-5-methyl-2-(8-(4,4,4-trifluorobutyl)-[1,2,4]triazolo[1,5-a]pyrazin-6-yl)-5H-pyrrolo[2,3-d]pyrimidin-6(7H)-one]
- EC50: 45.6 nM
